The source of these data is patent US20250223306A1, “TEAD INHIBITORS AND METHODS OF USE” (Sporos BioDiscovery, Inc., priority 2022, published 2025).

The structures appear in SMILES notation. Bounds are passed on as bounds.

For test [1], the system named is NCI-H226 cells. The test is described as follows: Proliferation and cell viability, CellTiter-Glo 2.0 (CTG) assay. In kind it is cell-based. The settings on record: H226-responder cell line, 144 hrs. The protocol: (§1) Cell proliferation of a TEAD dependent NF2-null mesothelioma cell line, NCI-H226, and a TEAD-non-dependent mesothelioma cell line, NCI-H28 was assayed using two different protocols: • a) CellTiter-Glo 2.0 (Promega #G9243). The effect of the TEAD inhibitors disclosed herein on cell proliferation was determined in TEAD1-genetically dependent cell line NCI-H226 (responder cell line) and TEAD-independent cell lines (NCI-H23, HEK293T), as non-responder, negative control. Cells were seeded in 96-well plates (Thermo Scientific #167008) in growth media (RPMI-1640, Gibco #61870-010) for NCI-H226 and NCI-H23 or DMEM (Gibco #31966-021, HEK293T) with 10% Heat Inactivated Fetal Bovine Serum (Gibco 10500-064) at 800 (NCI-H226 and HEK-293T) or 2000 (NCI-H23) cells per well at 37° C., 5% CO2, humidified incubator; 24 hours later, fresh growth media containing test compound or DMSO vehicle was added and incubated with the cells for 144 hrs. TEAD inhibitor stocks were made at a 1000× fold excess in DMSO, and a dose response test compound dose range of 10,000 to 0.1 nM was used. Each treatment was carried out in triplicate. After 144 hrs of treatment, relative cell viability numbers were determined using the CellTiter-Glo 2.0 assay following the manufacturer's instructions. Test plates and CellTiter-Glo 2.0 reagent were allowed to equilibrate to room temperature. CellTiter-Glo 2.0 reagent was added at 1:1 reagent to media ratio to the 96-well cell plates, plates were placed on a plate shaker for 2 minutes and then incubated at room temperature for a further 10 minutes to allow complete cell lysis to occur. The mix was then transferred to white, 96-well luminometer assay plates (Greiner Bio One #655075). Luminescence was quantified using a CLARIOStar Plus multi-mode plate reader (BMG Labtech) in luminescence detection mode with the recommended settings (ultra-Glo pre-set: emission 545-50 nm with autofocus and enhanced dynamic range on). Relative cell density was expressed as a function of inhibitor concentration, with respect to DMSO-only control wells. Data where plotted using GraphPad Prism and IC50 values for the biological effect were calculated using the EC50 non-linear fit function using a sigmoidal, 4-parameter logistic, least squares fit with no constraints. • b) Cell Titer One (Promega, #G3582). The effect of the TEAD inhibitors disclosed herein on cell proliferation was also determined using the Promega Substrate Cell Titer Aqueous One Solution Reagent. The TEAD inhibitors were evaluated for the effects on cell proliferation responder (H226) and non-responder negative control cancer cell lines (CAMA1, H28), as well as non-transformed normal human cells (HUVEC, NHDF). Dissociated cells were resuspend in media (depending on cell line, either in DMEM, RPMI, or EMEM all with 10% FBS, with gentamicin as an antibiotic). Cells were seeded at 100 μL/well at 750 cells per well in 96-well plates and allowed to settle and attach. After an incubation of 24 hrs (37° C., 5% CO2, humidified incubator), 100 μL of test compound-containing media was added. A dilution series of 2000× concentrated stock of test compounds was prepared in DMSO, for final concentrations from 0.1 to 10,000 nM. After addition of test compound-containing media, cells were incubated for 6 days at 37° C., 5% CO2, humidified incubators). To measure cell density, 20 μL of Promega Substrate Cell Titer 96 Aqueous One Solution Reagent (Promega, #G3582) to each well was added according to the manufacturer's instructions. Plates were incubated at 37° C. for usually 3-8 hrs, to reach in the control cells (without compound) an OD of 1.5 at 490 nm. The OD was measured using Vmax [Molecular Devices] spectrophotometer plate reader. Media only-wells were used as background controls and cell densities normalized to DMSO vehicle control. ECs were taken as the concentration achieving 50% of maximal growth inhibition.
A general note: In ATP-based viability assays light output follows the ATP content of the culture.

A further test concerns NCI-H23 cells. The description is as above. The test is classed as cell-based. The settings on record: 144 hrs. The protocol: as §1
Test [2] relates to NCI-H226 cells. The test can be described thus: Proliferation, Cell Titer One assay. The settings on record: 6 days. The test is classed as cell-based. The method, then:
as §1

In the next test the test system is NCI-H28 cells. The test is described as follows: Proliferation, Cell Titer One assay. The test is classed as cell-based. The settings on record: 6 days. The method, then: as §1
For test [3], the system named is TEAD/YAP promoter element in MCF7-Luc cells. The test is described as follows: Cell-based TEAD-promoter transcriptional activity assay (MCF-7 TEAD luciferase). The settings on record: Homo sapiens, MCF7; MCF-7 TEAD luciferase assay, 24 hrs. The text has this: Luciferase based TEAD-transcriptional cell-based reporter assay: To measure the effect of the TEAD inhibitors disclosed herein on TEAD transcriptional activity in cell-based systems, we employed a stable MCF7 cell line expressing luciferase under a consensus synthetic TEAD/YAP promoter element (MCF7-Luc, BPS Bioscience, Catalog #60618). This MCF7-TEAD-Luc cell line has been extensively validated with both genetic and pharmacological intervention, showing inhibition of luciferase expression and luminescence in response to ablation of the TEAD/YAP pathway. MCF7-Luc cells were plated at 10,000 cells per well in white 384-well plates and settled by a quick spin. The media was MEM (Gibco) supplemented with 10% fetal bovine serum (ExCell), selenium-transferrin-insulin mix (Gibco), 1× non-essential amino acids (Gibco) and sodium pyruvate (Gibco). Cells were allowed to attach and grow overnight (37° C., 5% CO2 in humidified incubator), and test compounds were added the next day. Compounds were dissolved at 1000× fold excess in DMSO and made into 2-fold serial dilution, and added to media at 30 μL of media per well. A DMSO-only well serves a vehicle control. The highest concentration of drug in media was 1,000 nM. Positive control compounds include K975 (pan-TEAD inhibitor) and negative control (Actinomycin). Cells were incubated for 24 hrs with test compounds and positive controls, after which time, the luminescence was measured by the One-Glo luciferase kit (Promega). 30 μL of One-Glo reagent was added to each well and shaken for 8 minutes to lyse the cells. The plates were centrifugated at 1000 RPM for 1 minute to settle all liquid in the well and eliminate bubbles. Luminescence was quantified using an ENVision plate reader (Perkin Elmer). Percent inhibition of luminescence by test compound was expressed as a function of test compound concentration, with the no-test compound DMSO only wells serving as baseline. EC50 values for each compound were calculated with a non-linear asymptotic line fit.

The target in the next test is TEAD1 (Homo sapiens, UniProt P28347). The settings on record: cited from earlier work.
Chain of TEAD1 (P28347 whole entry): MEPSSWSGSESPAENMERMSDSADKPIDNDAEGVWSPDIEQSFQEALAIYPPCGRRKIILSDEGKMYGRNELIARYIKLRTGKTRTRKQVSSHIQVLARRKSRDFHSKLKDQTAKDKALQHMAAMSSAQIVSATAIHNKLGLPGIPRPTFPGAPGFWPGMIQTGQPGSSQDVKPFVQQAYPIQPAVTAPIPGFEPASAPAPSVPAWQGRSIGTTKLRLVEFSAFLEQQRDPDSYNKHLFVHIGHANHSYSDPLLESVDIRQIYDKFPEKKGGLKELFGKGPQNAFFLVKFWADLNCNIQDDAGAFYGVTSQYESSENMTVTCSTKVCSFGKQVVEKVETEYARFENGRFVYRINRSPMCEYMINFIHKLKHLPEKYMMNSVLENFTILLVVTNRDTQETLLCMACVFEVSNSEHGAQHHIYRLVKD
The target in the next test is TEAD2 (Homo sapiens, UniProt Q15562). The settings on record: thermal shift, reported data of Tang and Post; cited from earlier work.
Chain of TEAD2 (Q15562 whole entry): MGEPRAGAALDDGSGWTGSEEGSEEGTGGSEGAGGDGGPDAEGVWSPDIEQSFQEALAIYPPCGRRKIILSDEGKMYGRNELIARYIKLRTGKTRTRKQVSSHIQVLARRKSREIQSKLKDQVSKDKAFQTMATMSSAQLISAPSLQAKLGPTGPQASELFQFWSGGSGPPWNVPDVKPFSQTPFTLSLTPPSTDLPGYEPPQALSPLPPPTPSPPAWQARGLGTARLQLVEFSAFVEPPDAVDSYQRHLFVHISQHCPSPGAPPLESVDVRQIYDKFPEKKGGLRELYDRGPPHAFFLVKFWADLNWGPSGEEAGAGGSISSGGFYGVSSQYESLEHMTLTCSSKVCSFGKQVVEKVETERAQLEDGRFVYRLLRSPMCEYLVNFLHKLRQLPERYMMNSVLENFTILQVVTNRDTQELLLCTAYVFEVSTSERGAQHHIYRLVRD
For a further test, the target named is TEAD3 (Homo sapiens, UniProt Q99594). The settings on record: thermal shift, reported data of Tang and Post; cited from earlier work.
Chain of TEAD3 (Q99594 whole entry): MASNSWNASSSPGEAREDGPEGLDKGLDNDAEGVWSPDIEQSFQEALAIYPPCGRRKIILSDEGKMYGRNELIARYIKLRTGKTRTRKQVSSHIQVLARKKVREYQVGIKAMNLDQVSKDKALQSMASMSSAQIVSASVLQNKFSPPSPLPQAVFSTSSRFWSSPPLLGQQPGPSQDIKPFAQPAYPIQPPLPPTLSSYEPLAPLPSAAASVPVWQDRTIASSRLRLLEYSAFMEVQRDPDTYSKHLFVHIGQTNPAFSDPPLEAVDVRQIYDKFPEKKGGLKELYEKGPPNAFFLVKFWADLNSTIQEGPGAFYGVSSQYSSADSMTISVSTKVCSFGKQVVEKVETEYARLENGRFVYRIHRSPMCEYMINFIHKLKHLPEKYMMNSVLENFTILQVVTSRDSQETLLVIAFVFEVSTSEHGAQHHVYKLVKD
For a further test, the target named is TEAD4 (Homo sapiens, UniProt Q15561). The settings on record: cited from earlier work.
Chain of TEAD4 (Q15561 whole entry): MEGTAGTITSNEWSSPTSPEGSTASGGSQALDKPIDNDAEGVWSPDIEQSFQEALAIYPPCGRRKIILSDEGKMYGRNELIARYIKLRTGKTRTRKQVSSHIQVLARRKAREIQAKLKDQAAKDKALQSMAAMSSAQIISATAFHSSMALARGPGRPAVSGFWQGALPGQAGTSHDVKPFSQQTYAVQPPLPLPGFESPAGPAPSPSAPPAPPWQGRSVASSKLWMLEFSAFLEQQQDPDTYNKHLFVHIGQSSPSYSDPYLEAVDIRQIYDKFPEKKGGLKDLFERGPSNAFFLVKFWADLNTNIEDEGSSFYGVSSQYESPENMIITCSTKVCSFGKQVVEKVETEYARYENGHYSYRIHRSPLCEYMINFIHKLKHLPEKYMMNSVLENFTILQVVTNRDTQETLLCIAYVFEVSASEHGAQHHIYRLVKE
[4] abbreviates: Homo sapiens, NCI-H23, H23-non-responder cell line.
The mark [5] stands for this setting: thermal shift assays of Tang and Post.
The mark [6] stands for this setting: thermal shift, reported data of Tang and Post.

Turning to `CC(C)NC(=O)c1cnc2c(C3=CCC(C(F)(F)F)CC3)cccc2c1` (centres unmarked) [Compound 1, N-isopropyl-8-(4-(trifluoromethyl)cyclohex-1-en-1-yl)quinoline-3-carboxamide], the IC50 was < 200 nM in the test with NCI-H226 cells [1] (Homo sapiens, NCI-H226, 144 h); > 1000 nM in the test on NCI-H23 cells (setting [4]); < 200 nM with NCI-H226 cells [2] (Homo sapiens, NCI-H226, 144 h); > 1000 nM with NCI-H28 cells (Homo sapiens, NCI-H28, 144 h). Also, the EC50 in test [3] was < 200 nM.
`C[C@H](NC(=O)c1cnc2c(C3=CC[C@@H](C(F)(F)F)CC3)cccc2c1)c1ncco1` (single isomer, unassigned) [Compound 21, N-(1-(oxazol-2-yl)ethyl)-8-(4-(trifluoromethyl)cyclohex-1-en-1-yl)quinoline-3-carboxamide]: the IC50 in the test on NCI-H226 cells [1] was 200 to 1000 nM; with NCI-H23 cells (H23-non-responder cell line), > 1000 nM; in the test with NCI-H226 cells [2], 200 to 1000 nM; in the test on NCI-H28 cells, > 1000 nM.
As for `COC[C@H](C)NC(=O)c1cnc2c(C3=CCC(C(F)(F)F)CC3)cccc2c1` (stereo partly drawn) [Compound 6, N—((S)-1-methoxypropan-2-yl)-8-(4-(trifluoromethyl)cyclohex-1-en-1-yl)quinoline-3-carboxamide], the 50% inhibitory concentration (IC50) with NCI-H226 cells [1] (Homo sapiens, NCI-H226, 144 h) was < 200 nM; in the test with NCI-H23 cells (setting [4]), > 1000 nM; in the test with NCI-H226 cells [2] (Homo sapiens, NCI-H226, 144 h), < 200 nM; in the test with NCI-H28 cells (Homo sapiens, NCI-H28, 144 h), > 1000 nM.
As for `C[C@H](NC(=O)c1cnc2c(C3=CC[C@@H](C(F)(F)F)CC3)cccc2c1)c1ncco1` (single isomer, unassigned) [Compound 22, N-(1-(oxazol-2-yl)ethyl)-8-(4-(trifluoromethyl)cyclohex-1-en-1-yl)quinoline-3-carboxamide], the IC50 was < 200 nM with NCI-H226 cells [1], > 1000 nM in the test on NCI-H23 cells (H23-non-responder cell line), 200 to 1000 nM in the test with NCI-H226 cells [2] and > 1000 nM with NCI-H28 cells.
Turning to `CS(=O)(=O)c1cnc2c(C3=CCC(C(F)(F)F)CC3)cccc2c1` (centres unmarked) [Compound 16, 3-(methylsulfonyl)-8-(4-(trifluoromethyl)cyclohex-1-en-1-yl)quinoline], the IC50 is < 200 nM in the test on NCI-H226 cells [1] (Homo sapiens, NCI-H226, 144 h); < 200 nM in the test on NCI-H226 cells [2] (Homo sapiens, NCI-H226, 144 h); > 1000 nM in the test with NCI-H28 cells (Homo sapiens, NCI-H28, 144 h).
Take `C[C@H](CO)NC(=O)c1ccc2c(Oc3ccc(C(F)(F)F)cc3)cccc2c1` [VT3989]: the “interaction with TEAD isoforms, in words” value on TEAD1 (setting [5]) was “primarily interacts with TEAD1-3”. Further, the “TEAD1 ΔTm” value on TEAD1 (setting [6]) is 11.6 °C. For the same compound, the “TEAD2 ΔTm” value on TEAD2 is 8.8 °C. On TEAD3, the “TEAD3 ΔTm” value is 8.5 °C. The “binding to TEAD4, in words” value at TEAD4 (setting [5]) is given as “lower levels of binding to TEAD4”. On TEAD4 (setting [6]), the “TEAD4 ΔTm” value was 4.6 °C.

Broadly, the IC50 is the point on the concentration scale where inhibition reaches its midpoint. Low readings indicate higher potency, high ones lower potency. The EC50 is the concentration that produces a half-maximal response. High values mean a less potent agent, low ones a more potent agent.
